≈ marks a conversion by molar mass, not a printed value. Calls of active or inactive are those of the source. No cut-off for these calls is given here.
Tests used:
Ephrin type-A receptor 4 = Ephrin type-A receptor 4 (Homo sapiens, UniProt P54764); assay: Displacement of biotinylated ephrin-A1-Fc from EphA4 (unknown origin) preincubated for 1 hr followed by biotinylated-ephrin-A1-Fc addition measured after 4 hrs by ELISA
Ephrin type-A receptor 5 = Ephrin type-A receptor 5 (Homo sapiens, UniProt P54756); assay: Displacement of biotinylated ephrin-A1-Fc from EphA5 (unknown origin) preincubated for 1 hr followed by biotinylated-ephrin-A1-Fc addition measured after 4 hrs by ELISA
Chain of Ephrin type-A receptor 5 (P54756 whole entry): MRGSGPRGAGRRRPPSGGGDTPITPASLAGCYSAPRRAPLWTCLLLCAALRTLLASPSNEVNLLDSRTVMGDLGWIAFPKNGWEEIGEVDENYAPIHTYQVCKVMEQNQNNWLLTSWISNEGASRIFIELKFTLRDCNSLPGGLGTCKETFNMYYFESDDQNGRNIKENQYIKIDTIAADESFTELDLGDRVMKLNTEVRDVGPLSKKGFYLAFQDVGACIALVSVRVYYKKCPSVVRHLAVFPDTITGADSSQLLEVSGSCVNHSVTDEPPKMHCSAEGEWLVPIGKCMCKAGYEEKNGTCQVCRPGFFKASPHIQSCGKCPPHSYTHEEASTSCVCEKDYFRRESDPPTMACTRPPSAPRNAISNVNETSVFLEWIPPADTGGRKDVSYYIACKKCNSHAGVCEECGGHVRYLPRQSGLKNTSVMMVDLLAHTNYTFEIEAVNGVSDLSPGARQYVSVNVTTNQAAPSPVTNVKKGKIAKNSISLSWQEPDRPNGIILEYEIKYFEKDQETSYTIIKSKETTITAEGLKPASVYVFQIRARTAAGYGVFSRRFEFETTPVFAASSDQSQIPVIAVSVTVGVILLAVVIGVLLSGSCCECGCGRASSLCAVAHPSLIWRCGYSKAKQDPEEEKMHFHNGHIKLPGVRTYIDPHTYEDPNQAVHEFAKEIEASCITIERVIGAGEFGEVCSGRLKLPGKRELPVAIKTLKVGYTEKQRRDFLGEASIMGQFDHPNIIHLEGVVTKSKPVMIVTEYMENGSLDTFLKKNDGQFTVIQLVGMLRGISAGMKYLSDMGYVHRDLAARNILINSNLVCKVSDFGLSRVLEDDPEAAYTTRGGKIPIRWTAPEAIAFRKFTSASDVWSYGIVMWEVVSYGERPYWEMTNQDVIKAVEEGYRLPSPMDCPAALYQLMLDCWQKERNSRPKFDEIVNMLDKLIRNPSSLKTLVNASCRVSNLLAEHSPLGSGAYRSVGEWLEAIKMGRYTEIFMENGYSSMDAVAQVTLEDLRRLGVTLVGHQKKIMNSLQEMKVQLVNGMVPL

[1] = target: T1, Ephrin type-A receptor 8 (Homo sapiens) (UniProt P29322); assay: (§1) Displacement of biotinylated ephrin-A1-Fc from EphA8 (unknown origin) preincubated for 1 hr followed by biotinylated-ephrin-A1-Fc addition measured after 4 hrs by ELISA
T1 sequence (whole entry): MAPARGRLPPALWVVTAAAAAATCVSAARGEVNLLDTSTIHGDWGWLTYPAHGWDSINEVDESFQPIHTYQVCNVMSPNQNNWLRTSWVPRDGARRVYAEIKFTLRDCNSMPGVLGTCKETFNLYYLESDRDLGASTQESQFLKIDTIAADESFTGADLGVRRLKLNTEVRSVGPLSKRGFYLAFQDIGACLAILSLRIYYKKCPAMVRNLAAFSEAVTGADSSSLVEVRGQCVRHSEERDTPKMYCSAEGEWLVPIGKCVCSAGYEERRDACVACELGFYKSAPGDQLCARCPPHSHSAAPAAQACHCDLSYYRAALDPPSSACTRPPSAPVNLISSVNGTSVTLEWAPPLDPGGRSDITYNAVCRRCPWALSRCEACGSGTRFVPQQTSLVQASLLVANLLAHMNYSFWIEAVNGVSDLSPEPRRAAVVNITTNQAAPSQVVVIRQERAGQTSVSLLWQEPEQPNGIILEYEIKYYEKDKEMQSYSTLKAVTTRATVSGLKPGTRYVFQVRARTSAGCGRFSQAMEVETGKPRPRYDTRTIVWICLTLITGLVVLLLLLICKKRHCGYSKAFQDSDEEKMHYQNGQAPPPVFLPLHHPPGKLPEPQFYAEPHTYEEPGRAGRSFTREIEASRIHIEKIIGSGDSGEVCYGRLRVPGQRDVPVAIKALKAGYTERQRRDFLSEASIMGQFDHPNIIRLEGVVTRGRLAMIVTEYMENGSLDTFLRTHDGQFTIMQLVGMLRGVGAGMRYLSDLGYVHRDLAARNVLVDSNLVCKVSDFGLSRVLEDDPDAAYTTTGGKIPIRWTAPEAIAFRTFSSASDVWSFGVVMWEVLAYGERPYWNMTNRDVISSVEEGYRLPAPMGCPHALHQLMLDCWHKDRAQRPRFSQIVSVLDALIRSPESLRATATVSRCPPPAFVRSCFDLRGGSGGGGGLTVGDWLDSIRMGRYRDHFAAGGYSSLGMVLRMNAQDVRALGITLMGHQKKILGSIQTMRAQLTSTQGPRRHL

Ephrin type-A receptor 8 = target: T2, Ephrin type-A receptor 8 (Homo sapiens, UniProt P29322); assay: as §1
T2 sequence (P29322 whole entry): T1 sequence (whole entry)

[2] = target: T3, Ephrin type-B receptor 1 (Homo sapiens) (UniProt P54762); assay: (§2) Displacement of biotinylated ephrin-B1-Fc from EphB1 (unknown origin) preincubated for 1 hr followed by biotinylated-ephrin-B1-Fc addition measured after 4 hrs by ELISA
T3 sequence (whole entry): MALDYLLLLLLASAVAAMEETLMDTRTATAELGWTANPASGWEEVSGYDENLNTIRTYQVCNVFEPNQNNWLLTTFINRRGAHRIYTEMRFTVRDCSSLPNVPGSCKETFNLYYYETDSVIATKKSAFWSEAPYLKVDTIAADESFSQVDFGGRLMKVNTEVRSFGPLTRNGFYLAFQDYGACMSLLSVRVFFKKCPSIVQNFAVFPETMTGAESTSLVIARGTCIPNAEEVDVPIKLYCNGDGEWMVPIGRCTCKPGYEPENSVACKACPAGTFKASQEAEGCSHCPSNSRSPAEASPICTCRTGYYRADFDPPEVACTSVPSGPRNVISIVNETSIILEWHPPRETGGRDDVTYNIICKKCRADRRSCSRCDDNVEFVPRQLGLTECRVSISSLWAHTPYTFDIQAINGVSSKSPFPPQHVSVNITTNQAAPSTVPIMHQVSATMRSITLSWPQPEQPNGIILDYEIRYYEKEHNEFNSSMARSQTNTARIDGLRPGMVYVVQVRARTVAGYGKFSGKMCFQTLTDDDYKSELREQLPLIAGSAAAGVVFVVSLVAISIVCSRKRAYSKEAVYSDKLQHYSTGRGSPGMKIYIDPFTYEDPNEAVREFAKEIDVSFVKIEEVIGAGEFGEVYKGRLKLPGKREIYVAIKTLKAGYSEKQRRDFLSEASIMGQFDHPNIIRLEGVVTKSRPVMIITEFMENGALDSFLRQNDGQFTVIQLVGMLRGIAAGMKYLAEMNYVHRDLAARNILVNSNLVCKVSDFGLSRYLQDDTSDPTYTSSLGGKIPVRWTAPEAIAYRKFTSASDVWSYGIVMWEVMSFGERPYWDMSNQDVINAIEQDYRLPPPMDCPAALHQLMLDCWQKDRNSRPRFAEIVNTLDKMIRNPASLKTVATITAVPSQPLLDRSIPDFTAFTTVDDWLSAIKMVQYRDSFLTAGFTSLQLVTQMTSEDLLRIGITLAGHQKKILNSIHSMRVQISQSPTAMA

Ephrin type-B receptor 1 = target: T4, Ephrin type-B receptor 1 (Homo sapiens, UniProt P54762); assay: as §2
T4 sequence (P54762 whole entry): T3 sequence (whole entry)

[3] = target: T5, G-protein coupled bile acid receptor 1 (Homo sapiens) (UniProt Q8TDU6); assay: Agonist activity at TGR5 (unknown origin) assessed as cAMP level up to 30 uM; assay type: functional
T5 sequence (whole entry): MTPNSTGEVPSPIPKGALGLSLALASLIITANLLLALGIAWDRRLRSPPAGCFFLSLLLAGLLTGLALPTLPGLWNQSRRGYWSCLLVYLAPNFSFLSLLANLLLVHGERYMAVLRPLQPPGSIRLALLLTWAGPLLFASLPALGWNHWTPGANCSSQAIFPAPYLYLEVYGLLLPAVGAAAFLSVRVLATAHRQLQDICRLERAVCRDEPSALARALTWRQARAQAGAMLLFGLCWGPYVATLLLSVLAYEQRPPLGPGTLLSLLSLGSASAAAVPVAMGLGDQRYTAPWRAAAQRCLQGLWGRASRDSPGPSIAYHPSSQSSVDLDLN

[4] = AUC (0 to t) in mouse at 30 mg/kg, po administered as single dose by HPLC-MS analysis; assay type: ADME, organism-based; settings: in vivo
[5] = Metabolic stability in mouse plasma assessed as compound remaining at 1 uM after 24 hrs by HPLC-ESI-MS/MS analysis; assay type: ADME, cell-free; settings: read-out: Stability
[6] = Kinetic solubility of the compound in NaCl solution at 25 deg C after 2 hrs by HPLC-ESI-MS/MS analysis; assay type: physicochemical; settings: read-out: Kinetic_solubility
[7] = Cytotoxicity against human PC3 cells at 10 to 30 uM after 2 hrs by LDH release assay; assay type: cell-based; settings: pc-3, 2 h

Chain of Ephrin type-A receptor 4 (P54764 whole entry): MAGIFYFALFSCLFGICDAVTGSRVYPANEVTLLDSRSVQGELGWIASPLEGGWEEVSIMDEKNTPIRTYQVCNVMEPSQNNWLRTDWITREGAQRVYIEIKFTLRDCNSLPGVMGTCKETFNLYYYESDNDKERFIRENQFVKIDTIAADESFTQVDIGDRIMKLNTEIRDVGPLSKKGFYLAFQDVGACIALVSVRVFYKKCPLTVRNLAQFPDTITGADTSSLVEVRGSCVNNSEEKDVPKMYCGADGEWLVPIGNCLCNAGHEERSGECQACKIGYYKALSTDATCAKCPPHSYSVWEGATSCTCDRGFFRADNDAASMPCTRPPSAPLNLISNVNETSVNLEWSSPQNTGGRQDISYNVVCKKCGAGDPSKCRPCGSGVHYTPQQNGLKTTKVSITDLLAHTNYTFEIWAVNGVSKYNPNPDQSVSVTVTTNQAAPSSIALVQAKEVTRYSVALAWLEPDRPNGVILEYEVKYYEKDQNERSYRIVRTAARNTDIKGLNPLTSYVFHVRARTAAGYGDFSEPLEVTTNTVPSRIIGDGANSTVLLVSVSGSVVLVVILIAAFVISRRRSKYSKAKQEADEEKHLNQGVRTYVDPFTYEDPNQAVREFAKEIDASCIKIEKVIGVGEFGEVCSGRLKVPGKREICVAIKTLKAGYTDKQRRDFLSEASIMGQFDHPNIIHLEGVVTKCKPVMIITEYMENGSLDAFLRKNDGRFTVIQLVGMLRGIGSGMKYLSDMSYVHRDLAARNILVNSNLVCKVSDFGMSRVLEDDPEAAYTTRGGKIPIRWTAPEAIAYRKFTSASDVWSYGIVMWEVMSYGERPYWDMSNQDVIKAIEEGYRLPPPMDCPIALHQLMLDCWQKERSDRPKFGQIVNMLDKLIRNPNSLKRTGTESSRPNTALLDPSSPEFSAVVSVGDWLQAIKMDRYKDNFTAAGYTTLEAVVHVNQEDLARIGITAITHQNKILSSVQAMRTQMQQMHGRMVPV

Q: Which results are given for `C[C@H](CCC(=O)N[C@@H](Cc1c[nH]c2ccccc12)C(=O)O)[C@H]1CC[C@H]2[C@@H]3CC=C4C[C@@H](O)CC[C@]4(C)[C@H]3CC[C@]12C`?
A: IC50 (Ephrin type-A receptor 4): 3800 nM; inhibition (Ephrin type-A receptor 4): Dose-dependent effect; IC50 (Ephrin type-A receptor 5): 2600 nM; inhibition (Ephrin type-A receptor 5): Dose-dependent effect; inhibition [1]: Dose-dependent effect; IC50 (Ephrin type-A receptor 8): 3100 nM; inhibition [2]: Dose-dependent effect; IC50 (Ephrin type-B receptor 1): 2500 nM; Activity [3]: inactive; AUC(0-t) [4]: 573 ng·h/mL; remaining at 24 h, 1 µM [5]: 95.8%; solubility kinetic at 2 h [6]: 31.5 µM (≈ 17.7 µg/mL); Activity [7]: Non-toxic

— ChEMBL document CHEMBL3734669, “Δ(5)-Cholenoyl-amino acids as selective and orally available antagonists of the Eph-ephrin system” (Eur J Med Chem, 2015)
